Earlier results in PubChem BioAssay AID1259409 (Chemical Carcinogenesis Research Information System (CCRIS), 2018).

Test system: rodent chemically induced tumor inhibition, incidence and multiplicity
Experiment: CCRIS tumor inhibitor studies
Conditions: Species: MOUSE

## Cc1ncc(CO)c(CO)c1O
Carcinogen: 7,12-DIMETHYLBENZ[A]ANTHRACENE, 57-97-6, Dose [Inhibitor]: 0.04% IN DRINKING WATER DAILY STARTING 4 WK BEFORE CARCINOGEN TREATMENT AND CONTINUING FOR DURATION OF STUDY (STUDY DURA, Route [Inhibitor]: ORAL, Strain/Sex: 101/MALE, FEMALE, Target Tissue: Type of Lesion: SKIN: PAPILLOMA, Dose [Carcinogen]: 225 UG IN 0.15 ML ACETONE ONCE, Promoter: CROTON OIL, 8001-28-3
  tumour outcome (control, treated, inhibition, significance): 17/19 (89%), 17/18 (94%), -6%, not calculated
Carcinogen: HYDRAZINE SULFATE, 10034-93-2, Dose [Inhibitor]: 1.1 MG/D IN DIET STARTING 1 WK PRIOR TO ADMINISTRATION OF CARCINOGEN UNTIL END OF EXPERIMENT (STUDY DURATION: APPROXIMAT, Route [Inhibitor]: ORAL, Strain/Sex: SWISS/MALE, FEMALE, Target Tissue: Type of Lesion: LUNG: TUMORS, Dose [Carcinogen]: 1.1 MG/D 5 D/WK UNTIL 12 MO OF AGE, Promoter: NONE USED
  tumour outcome (control, treated, inhibition, significance): 22/29 (76%), 26/33 (79%), -4%, not significant
Carcinogen: ISONIAZID, 54-85-3, Dose [Inhibitor]: 1.1 MG/MOUSE/D SIMULTANEOUSLY WITH CARCINOGEN 6 D/WK (STUDY DURATION: 24 MO), Route [Inhibitor]: INTRAGASTRIC, Strain/Sex: SWISS/MALE, Target Tissue: Type of Lesion: LUNG: TUMOR, Dose [Carcinogen]: 1.1 MG/MOUSE/D SIMULTANEOUSLY WITH AGENT, Promoter: NONE USED
  tumour outcome (control, treated, inhibition, significance): 15/29 (52%), 2/12 (17%), 67%, p<0.1
